From patent publication US20240067685A1, “HIDDEN ANTIBIOTICS IN THE HUMAN PROTEOME” (priority 2022, published 2024)
In brackets after ≈: the same amount, converted by molar mass. Several values for one entry are separate records, joined by “and”; a condition that tells them apart may be missing. Equal values may be shown once. Read-outs that look alike come from different tables or passages of the source. Non-standard residues stand in square brackets, D forms with d. Residues, ends and D or L forms follow the SMILES beside them. No end group written: not given here.

Assays:
A. baumannii ATCC 17878 [1] = test: microbe, parasite or virus in culture; settings: for MIC values: conventional antimicrobial agents, Acinetobacter baumannii ATCC 17878
Method: (§1) Antimicrobial activity. The antimicrobial activity of ApoB-derived encrypted peptides was assessed against a panel of skin pathogens, such as S. epidermidis ATCC 35984, S. aureus ATCC 12600, A. baumannii ATCC 17878, K. pneumoniae ATCC 700603, S. aureus MRSA (WK7-2), E. faecalis ATCC 29212 and P. aeruginosa PAO1 by using the broth microdilution method. ^20 Bacteria were grown to mid-logarithmic phase in MHB at 37° C. […] Following incubation over-night, each sample was diluted, plated on TSA, and incubated at 37° C. for 24 h to count the number of colonies. All experiments were performed in three independent replicates.

[2] = system: K. pneumoniae ATCC 700603; test: microbe, parasite or virus in culture; settings: for MIC values: conventional antimicrobial agents, Klebsiella pneumoniae ATCC 700603
Method: as §1

S. aureus ATCC 12600 [3] = test: microbe, parasite or virus in culture; settings: for MIC values: conventional antimicrobial agents, Staphylococcus aureus ATCC 12600
Method: as §1

[4] = system: S. epidermidis ATCC 35984; test: microbe, parasite or virus in culture; settings: for MIC values: conventional antimicrobial agents, Staphylococcus epidermidis ATCC 35984
Method: as §1

A. baumannii ATCC 17878 [5] = test: Bacterial resistance development assay (30 days); assay type: cell-based, Acinetobacter baumannii; settings: for change in MIC (resistance development): 30 days of treatment; for MIC: Acinetobacter baumannii
Method: (§2) Experiments were performed to assess whether prolonged exposure to ApoB-derived encrypted peptides led to the evolution of resistant phenotypes, since classical AMPs are known to be less likely to trigger bacterial resistance than standard antibiotics. ^41 The Gram-negative bacterial pathogen A. baumannii ATCC 17878, and the Gram-positives S. epidermidis ATCC 35984, and S. aureus ATCC 12600 were longitudinally treated with r(P)ApoBL^Pro, r(P)ApoBL^Ala, and r(P)ApoBS^Pro. Control sample groups were treated with the antibiotics colistin, gentamicin, and mupirocin, selected based on their distinct mechanisms of action, the former destabilizing the bacterial extracellular membrane and the latter acting on intracellular targets. […] A. baumannii resistance towards colistin increased by up to 8-fold, whereas S. epidermidis resistance to gentamicin and mupirocin increased by up to 16- and 8-fold, respectively (FIG. 3C). […] For example, both colistin-resistant A. baumannii ATCC 17878 and gentamicin-resistant S. epidermidis ATCC 35984 presented wrinkled borders (FIG. 2E) as opposed to the smooth colonies' characteristic of their morphology at the beginning of the experiment (FIG. 2E).
(§3) Bacterial resistance development assay. S. epidermidis ATCC 35984, S. aureus ATCC 12600 and A. baumannii ATCC 17878 bacterial strains were exposed to colistin, gentamicin, mupirocin, r(P)ApoBL^Pro, r(P)ApoBL^Ala or r(P)ApoBS^Pro. Once, we detected the MIC values for each peptide or antibiotic against the bacterial strains tested, we transferred bacterial cells that survived the exposure at a sub-inhibitory (MIC/2) concentration, and they were re-grown and re-exposed to the respective peptide or antibiotic. ^20 The treatment was repeated for 30 days. Strains that developed resistance to antibiotics presented higher MICs at subsequent passages and the cells from the last passage were isolated and stored for scanning electron microscopy analyses.

[6] = system: S. epidermidis ATCC 35984; test: Bacterial resistance development assay (30 days); assay type: cell-based, Staphylococcus epidermidis; settings: for change in MIC (resistance development): S. epidermidis, 30 days of treatment; for MIC: Staphylococcus epidermidis
Method: as §2, §3

[7] = system: P. aeruginosa wild-type PAO1
Method: as §1

S. aureus MRSA (WKZ-2) = system: S. aureus MRSA (WKZ-2)
Method: as §1

in vitro = settings: 25% fetal bovine serum
Method: To determine its proteolytic stability, it was assessed whether (ri)-r(P)ApoBS^Pro was less susceptible to serum proteases compared to its parent peptide r(P)ApoBS^Pro.
Stability assay. The resistance to enzymatic degradation assay was performed according to the method described by Powell et al. ^72 Briefly, peptides at 2 mg mL^−1 were exposed to a solution of 25% fetal bovine serum in water. Aliquots were collected after 0.5, 1, 2, and 4 h and 10 μL of trifluoroacetic acid was added to them while the samples were on ice for 10 min. The enzymatic degradation of peptides was followed by reverse-phase high performance liquid chromatography coupled to mass spectrometry (RP-HPLC/ESI-MS). The percentage of remaining peptide was calculated by integrating the area under the curve related to the peptide at time point zero.
where AUCX is the area under the curve of the peak related to the peptide after t h (t=0.5, 1, 2, and 4 h), and AUC0 is the area under the curve of the peak related to the peptide at the beginning of the experiment. Three independent experimental replicates were performed, as previously described. ^73

S. aureus ATCC 12600 [8] = test: Bacterial resistance development assay (30 days); assay type: cell-based, Staphylococcus aureus
Method: as §2, §3

E. faecalis ATCC 29212 = system: E. faecalis ATCC 29212
Method: as §1

[9] = Acinetobacter baumannii, ATCC17878, read-out: MIC values
[10] = Klebsiella pneumoniae, ATCC700603, read-out: MIC values
[11] = Staphylococcus aureus, ATCC12600, read-out: MIC values
[12] = Staphylococcus epidermidis, ATCC35984, read-out: MIC values

Compound: Colistin
- MIC values (A. baumannii ATCC 17878 [1]): 3.12 µg/mL
- MIC values [2]: 3.12 µg/mL
- MIC values (S. aureus ATCC 12600 [3]): 12.5 µg/mL
- MIC values [4]: 3.12 µg/mL
- change in MIC (resistance development) (A. baumannii ATCC 17878 [5]; A. baumannii): up to 8 fold
- MIC after 30 days of treatment (A. baumannii ATCC 17878 [5]; A. baumannii): 25 µg/mL
- MIC after 30 days of treatment (A. baumannii ATCC 17878 [5]; A. baumannii, listed as colistin): 21.6 µM
- MIC at start of resistance study (A. baumannii ATCC 17878 [5]; A. baumannii, before prolonged treatment): 3.12 μg mL^−1 and 2.7 μmol L^−1
- change in MIC (resistance development) [6]: No significant resistance development

Compound: CC[C@@H](C)[C@@H](NC(=O)[C@H]1CCCN1C(=O)[C@@H](CO)NC(=O)[C@H]1CCCN1C(=O)[C@@H](CCCCN)NC(=O)[C@@H](CCCNC(=N)N)NC(=O)[C@H]1CCCN1C(=O)[C@H](NC(=O)[C@@H](CCCCN)NC(=O)[C@@H](CC(C)C)NC(=O)[C@@H](CC(C)C)NC(=O)[C@@H](CO)NC(=O)CN)C(C)C)C(=O)N[C@@H](C(=O)N[C@H](Cc1ccccc1)C(=O)N[C@H](CCCCN)C(=O)N[C@H](CC(C)C)C(=O)N[C@H](CCCCN)C(=O)NCC(=O)N1CCC[C@@H]1C(=O)N[C@H](CCCCN)C(=O)N[C@H](CC(C)C)C(=O)N[C@H](C)C(=O)N[C@@H](C(=O)N[C@H](Cc1c[nH]cn1)C(=O)N1CCC[C@@H]1C(=O)O)C(C)C)[C@H](C)CC [(ri)-r(P)ApoBS^Pro] (H-G[dS][dL][dL][dK][dV][dP][dR][dK][dP][dS][dP][dI][dI][dF][dK][dL][dK]G[dP][dK][dL][dA][dV][dH][dP]-OH; N-terminus and C-terminus assumed)
- MIC (S. aureus ATCC 12600 [3]; ATCC 12600): 20 µM
- MIC ([4]; ATCC 35984): 10 µM
- MIC [7]: 10 µM (≈ 28.2 µg/mL)
- MIC (S. aureus MRSA (WKZ-2)): 10 µM (≈ 28.2 µg/mL)
- remaining at 4 h, 2 mg mL^-1 (in vitro; bovine): ~50%

Compound: C/C(=C\C(=O)OCCCCCCCCC(=O)O)C[C@@H]1OC[C@H](C[C@@H]2O[C@H]2[C@@H](C)[C@H](C)O)[C@@H](O)[C@H]1O [mupirocin]
- MIC (A. baumannii ATCC 17878 [5]; ATCC17878, read-out: MIC after 30 days of treatment): 400 µg/mL and 800 µM
- MIC (A. baumannii ATCC 17878 [5]; ATCC17878, read-out: MIC at start of resistance study): 100 µg/mL and 200 µM
- change in MIC (resistance development) [6]: up to 8 fold
- MIC ([6]; ATCC35984, read-out: MIC after prolonged treatment): 0.012 µg/mL and 0.024 µM
- MIC ([6]; ATCC35984, read-out: MIC at start of resistance study): 0.0015 µg/mL and 0.003 µM
- MIC before increase (S. aureus ATCC 12600 [8]; before the increase): 0.024 μg mL^−1 and 0.048 μmol L^−1
- MIC after increase (S. aureus ATCC 12600 [8]; between days 15 and 21 of treatment): 0.19 μg mL^−1 and 0.38 μmol L^−1
- change in MIC (resistance development) (S. aureus ATCC 12600 [8]; prolonged treatment): 8 fold

Compound: Polymyxin B
- MIC values (A. baumannii ATCC 17878 [1]): 6.25 µg/mL
- MIC values [2]: 6.25 µg/mL
- MIC values (S. aureus ATCC 12600 [3]): 12.5 µg/mL
- MIC values [4]: 3.12 µg/mL

Compound: CN[C@H](CC(C)C)C(=O)N[C@H]1C(=O)N[C@@H](CC(N)=O)C(=O)N[C@H]2C(=O)N[C@H]3C(=O)N[C@H](C(=O)N[C@H](C(=O)O)c4cc(O)cc(O)c4-c4cc3ccc4O)[C@H](O)c3ccc(c(Cl)c3)Oc3cc2cc(c3O[C@@H]2O[C@H](CO)[C@@H](O)[C@H](O)[C@H]2O[C@H]2C[C@](C)(N)[C@H](O)[C@H](C)O2)Oc2ccc(cc2Cl)[C@H]1O [Vancomycin]
- MIC (A. baumannii ATCC 17878 [1]; [9]): 50 µg/mL
- MIC [2, 10]: 50 µg/mL
- MIC (S. aureus ATCC 12600 [3]; [11]): 0.78 µg/mL
- MIC [4, 12]: 1.56 µg/mL

Compound: O=C(O)CN(CCN(CC(=O)O)CC(=O)O)CC(=O)O [EDTA]
- MIC values (A. baumannii ATCC 17878 [1]): 24.5 µg/mL (≈ 83.8 µM)
- MIC values [2]: 49 µg/mL (≈ 168 µM)
- MIC values (S. aureus ATCC 12600 [3]): 24.5 µg/mL (≈ 83.8 µM)
- MIC values [4]: 196 µg/mL (≈ 671 µM)

Compound: PHVALKAGKLKFIIPSPKRPVKLLSGGNTLHLVSTTKT [r(P)ApoBL^Ala]
- MIC (A. baumannii ATCC 17878 [1]; ATCC 17878): 2.5 µM
- MIC ([2]; ATCC 700603): 5 µM
- MIC (S. aureus ATCC 12600 [3]; ATCC 12600): 20 µM
- MIC ([4]; ATCC 35984): 10 µM
- MIC (E. faecalis ATCC 29212): 10 µM
- MIC [7]: 2.5 µM
- MIC (S. aureus MRSA (WKZ-2)): 10 µM
- stability in the presence of serum (in vitro): degraded within minutes

Compound: PHVALKPGKLKFIIPSPKRPVKLLSGGNTLHLVSTTKT [r(P)ApoBL^Pro]
- MIC (A. baumannii ATCC 17878 [1]; ATCC 17878): 5 µM
- MIC ([2]; ATCC 700603): 10 µM
- MIC (S. aureus ATCC 12600 [3]; ATCC 12600): 20 µM
- MIC ([4]; ATCC 35984): 10 µM
- MIC (E. faecalis ATCC 29212): 20 µM
- MIC [7]: 5 µM
- MIC (S. aureus MRSA (WKZ-2)): 20 µM
- stability in the presence of serum (in vitro): degraded within minutes

Compound: Gentamicin
- MIC values (A. baumannii ATCC 17878 [1]): 0.25 µg/mL
- MIC values [2]: 0.5 µg/mL
- MIC values (S. aureus ATCC 12600 [3]): 1 µg/mL
- MIC values [4]: 2 µg/mL
- change in MIC (resistance development) (A. baumannii ATCC 17878 [5]; A. baumannii): did not change
- change in MIC (resistance development) [6]: up to 16 fold

Compound: O=C(OOC(=O)c1ccccc1)c1ccccc1 [Benzoyl Peroxide]
- MIC (A. baumannii ATCC 17878 [1]; [9]): 32 µg/mL
- MIC values [2]: Resistant
- MIC (S. aureus ATCC 12600 [3]; [11]): 16 µg/mL
- MIC [4, 12]: 16 µg/mL

Compound: CCC[C@@H]1C[C@@H](C(=O)N[C@@H]([C@H]2O[C@H](SC)[C@H](O)[C@@H](O)[C@H]2O)[C@H](C)Cl)N(C)C1 [Clindamycin]
- MIC (A. baumannii ATCC 17878 [1]; [9]): 62.5 µg/mL
- MIC [2, 10]: 125 µg/mL
- MIC (S. aureus ATCC 12600 [3]; [11]): 0.5 µg/mL

Compound: CC[C@H]1OC(=O)[C@H](C)[C@@H](O[C@H]2C[C@@](C)(OC)[C@@H](O)[C@H](C)O2)[C@H](C)[C@@H](O[C@@H]2O[C@H](C)C[C@H](N(C)C)[C@H]2O)[C@](C)(O)C[C@@H](C)C(=O)[C@H](C)[C@@H](O)[C@]1(C)O [Erytromycin]
- MIC (A. baumannii ATCC 17878 [1]; [9]): 125 µg/mL
- MIC [2, 10]: 7.8 µg/mL
- MIC (S. aureus ATCC 12600 [3]; [11]): 15 µg/mL
- MIC values [4]: Resistant

Compound: CC(=O)O[C@H]1C[C@@]2(C)[C@@H](C[C@@H](O)[C@H]3[C@@]4(C)CC[C@@H](O)[C@@H](C)[C@@H]4CC[C@@]32C)/C1=C(\CCC=C(C)C)C(=O)O [Fusidic acid]
- MIC (A. baumannii ATCC 17878 [1]; [9]): 2.25 µg/mL
- MIC values [2]: Resistant
- MIC (S. aureus ATCC 12600 [3]; [11]): 0.06 µg/mL
- MIC [4, 12]: 0.06 µg/mL
